Experimental findings from PubChem BioAssay (NCI) are described below.

SMILES strings stand for the structures.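 Each compound was tested at five concentrations against cells in 96-well plates for 48 hours. TGI denotes the concentration required for complete inhibition of growth.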 Some results are limits rather than exact numbers.

Test systems include COLO 205 colon; RXF 393 renal; MOLT-4 leukemia; MDA-N; MALME-3M melanoma; EKVX NSCLC; MDA-MB-231 breast; SK-MEL-5 melanoma; A549 NSCLC; CAKI-1 renal; SK-OV-3 ovarian; UACC-257 melanoma; NCI-H23 lung; HCT-116 colon; KM12 colon; HOP-62 NSCLC; HOP-92 NSCLC; RPMI-8226 leukemia; BT-549 breast.
Holding throughout (assay): DTP human tumour cell line panel, 48 h

Consider `CSc1ccc(NC(=S)NN(C)C)cc1`, for which the TGI in the experiment on COLO 205 colon, in the experiment on RXF 393 renal, in the experiment with MOLT-4 leukemia, with MDA-N, in the experiment on MALME-3M melanoma and in the experiment with EKVX NSCLC was above 10 µM each time. Moreover, the TGI in the experiment with MDA-MB-231 breast, with SK-MEL-5 melanoma, in the experiment on A549 NSCLC, with CAKI-1 renal, with SK-OV-3 ovarian and in the experiment on UACC-257 melanoma was above 10 µM throughout. Moreover, the TGI in the experiment on NCI-H23 lung, in the experiment on HCT-116 colon, in the experiment with KM12 colon, in the experiment on HOP-62 NSCLC, in the experiment with HOP-92 NSCLC and in the experiment on RPMI-8226 leukemia was above 10 µM throughout.

With `O=C1/C(=C/c2ccccc2O)N=C(c2ccccc2)N1c1nc2ccccc2s1`, the TGI in the experiment on RXF 393 renal is above 100 µM; in the experiment with MOLT-4 leukemia, 60.7 µM; with MDA-N, 8.55 µM; with EKVX NSCLC it was above 100 µM; in the experiment with MDA-MB-231 breast, 95.1 µM; in the experiment on SK-MEL-5 melanoma, 23.3 µM. For the same molecule, the TGI in the experiment with CAKI-1 renal is above 100 µM; in the experiment with SK-OV-3 ovarian, above 100 µM; in the experiment on UACC-257 melanoma it was 79.2 µM; with NCI-H23 lung, 38.5 µM; with HCT-116 colon, 77.5 µM; in the experiment on KM12 colon, above 100 µM. Further, the TGI is above 100 µM with HOP-62 NSCLC, above 100 µM in the experiment on HOP-92 NSCLC and 49.3 µM with RPMI-8226 leukemia.

For the molecule `Cc1cccnc1/N=C/c1c(O)n(C)c(=O)[nH]c1=O`, the TGI in the experiment with COLO 205 colon is above 100 µM; in the experiment with MOLT-4 leukemia, above 100 µM; in the experiment with MDA-N it was above 100 µM; in the experiment on MALME-3M melanoma, 87.7 µM; in the experiment on EKVX NSCLC it was above 100 µM; in the experiment with SK-MEL-5 melanoma it was above 100 µM. The TGI with BT-549 breast, with A549 NSCLC, in the experiment on CAKI-1 renal, with SK-OV-3 ovarian, in the experiment with UACC-257 melanoma and in the experiment with NCI-H23 lung was above 100 µM throughout. The TGI in the experiment with HCT-116 colon, in the experiment on KM12 colon, in the experiment on HOP-62 NSCLC and in the experiment with HOP-92 NSCLC was above 100 µM in each case.

In the case of `Cc1ccc(OC2CC(n3cnc4ncnc(Cl)c43)OC2Oc2ccc(C)cc2)cc1` (stereo not drawn), the TGI in the experiment on COLO 205 colon is 46.5 µM; with MOLT-4 leukemia it was above 100 µM; with MDA-N, above 100 µM; with MALME-3M melanoma, above 100 µM; with EKVX NSCLC, above 100 µM; in the experiment on MDA-MB-231 breast it was 50.2 µM. The TGI was 46.4 µM in the experiment on SK-MEL-5 melanoma; above 100 µM in the experiment with BT-549 breast; 82.5 µM in the experiment on A549 NSCLC; 5.93 µM with CAKI-1 renal; above 100 µM with SK-OV-3 ovarian; above 100 µM with UACC-257 melanoma. Further, the TGI is 82.5 µM in the experiment with NCI-H23 lung; above 100 µM with HCT-116 colon; 74.4 µM in the experiment with KM12 colon; 90.2 µM with HOP-62 NSCLC; above 100 µM in the experiment on HOP-92 NSCLC.

With `N#C/C(=C\c1cc(Cl)cc(Cl)c1)c1ccccn1`, the TGI in the experiment on COLO 205 colon was above 100 µM; in the experiment on RXF 393 renal, 47.2 µM; in the experiment with MOLT-4 leukemia, above 100 µM; in the experiment on MDA-N it was 40.2 µM; in the experiment with MALME-3M melanoma, above 100 µM; in the experiment with EKVX NSCLC, 60 µM. The TGI in the experiment with SK-MEL-5 melanoma was above 100 µM; with BT-549 breast, 48.7 µM; with A549 NSCLC it was above 100 µM; in the experiment with CAKI-1 renal it was above 100 µM; with SK-OV-3 ovarian, above 100 µM; with UACC-257 melanoma it was above 100 µM. Moreover, the TGI in the experiment with NCI-H23 lung, in the experiment on HCT-116 colon, in the experiment with KM12 colon, in the experiment on HOP-62 NSCLC and in the experiment with RPMI-8226 leukemia was above 100 µM throughout.

As for `COc1cc(COC(=O)N(CC(=O)O)c2ccccc2)c([N+](=O)[O-])cc1OC`, the TGI in the experiment with COLO 205 colon, in the experiment with RXF 393 renal, in the experiment on MOLT-4 leukemia, with MDA-N, in the experiment with MALME-3M melanoma and with EKVX NSCLC was above 100 µM throughout. Further, the TGI in the experiment with SK-MEL-5 melanoma, with BT-549 breast, in the experiment on A549 NSCLC, with SK-OV-3 ovarian, in the experiment with UACC-257 melanoma and in the experiment with NCI-H23 lung was above 100 µM in each case. Also, the TGI in the experiment with KM12 colon, with HOP-62 NSCLC, in the experiment on HOP-92 NSCLC and with RPMI-8226 leukemia was above 100 µM throughout.

With `N=c1c2c(-c3ccccc3)c[nH]c2ncn1N`, the TGI with COLO 205 colon, in the experiment with MOLT-4 leukemia, with MDA-N, in the experiment on EKVX NSCLC, in the experiment on MDA-MB-231 breast and in the experiment with SK-MEL-5 melanoma was above 100 µM each time. Moreover, the TGI with BT-549 breast, with A549 NSCLC, in the experiment with CAKI-1 renal, in the experiment with SK-OV-3 ovarian, in the experiment on UACC-257 melanoma and with NCI-H23 lung was above 100 µM in each case. Besides, the TGI in the experiment with HCT-116 colon, in the experiment with KM12 colon, with HOP-62 NSCLC, with HOP-92 NSCLC and in the experiment with RPMI-8226 leukemia was above 100 µM each time.

Regarding `CCCCCCCCCCCCCC[S+](C)C`, the TGI was 2.97 µM in the experiment with COLO 205 colon; 2.72 µM in the experiment with RXF 393 renal; 2.85 µM in the experiment on MOLT-4 leukemia; 4.15 µM in the experiment with MDA-N; 9.87 µM in the experiment with EKVX NSCLC; 4.64 µM in the experiment with MDA-MB-231 breast. Also, the TGI was 2.97 µM in the experiment with SK-MEL-5 melanoma; 4.14 µM with A549 NSCLC; above 10 µM in the experiment with CAKI-1 renal; above 10 µM with SK-OV-3 ovarian; 6.99 µM in the experiment with UACC-257 melanoma; 4.09 µM in the experiment with NCI-H23 lung. Besides, the TGI in the experiment with HCT-116 colon is above 10 µM; with KM12 colon, 2.95 µM; in the experiment on HOP-62 NSCLC, 3.87 µM; in the experiment with HOP-92 NSCLC, 3.67 µM; with RPMI-8226 leukemia, 2.65 µM.

The term TGI denotes the concentration giving total growth inhibition. A low value points to more potent growth arrest.
